Assay results from ChEMBL document CHEMBL1159021, “Antitumor agents, 127. Bruceoside C, a new cytotoxic quassinoid glucoside, and related compounds from Brucea javanica” (1992).
Converted amounts (≈) assume the structure as drawn.

Key:
Assay type in all cases: functional
Conditions in all cases: read-out: ED50 (the source's name)
TE-671 = assay: Cytotoxicity against human TE671 cells
KB = assay: Cytotoxicity against human KB cells
P388 = assay: Cytotoxicity against mouse P388 cells
HCT-8 = assay: Cytotoxicity against human HCT8 cells
[1] = Cytotoxicity against human RPMI cells
A549 = assay: Cytotoxicity against human A549 cells

Compound: COC(=O)[C@@]12OC[C@]34[C@H](OC(=O)C[C@@H]13)[C@H](OC(=O)C=C(C)C)[C@H]1C(C)=C(O[C@@H]3O[C@H](CO)[C@@H](O)[C@H](O)[C@H]3O)C(=O)C[C@]1(C)[C@H]4[C@@H](O)[C@@H]2O [BRUCEOSIDE C]
- EC50 (TE-671): 0.29 µg/mL (≈ 0.425 µM)
- EC50 (KB): < 0.1 µg/mL
- EC50 (P388): 5.11 µg/mL (≈ 7.49 µM)
- EC50 (HCT-8): 4.51 µg/mL (≈ 6.61 µM)
- EC50 [1]: < 0.1 µg/mL
- EC50 (A549): 0.44 µg/mL (≈ 0.645 µM)
